Reference: patent US10329302B2, “Bicyclic-fused heteroaryl or aryl compounds” (Pfizer Inc., priority 2014, dated 2019)

molecular target: human IRAK4 kinase domain (aa 154-460) (Homo sapiens (Human), UniProt Q9NWZ3); experiment: IRAK4 Enzymatic DELFIA Assay, Protocol B; type: biochemical; details: not given
Source text: IRAK4 Enzymatic DELFIA Assay, Protocol B.

human IRAK4 kinase domain (aa 154-460), sequence (Q9NWZ3 154-460): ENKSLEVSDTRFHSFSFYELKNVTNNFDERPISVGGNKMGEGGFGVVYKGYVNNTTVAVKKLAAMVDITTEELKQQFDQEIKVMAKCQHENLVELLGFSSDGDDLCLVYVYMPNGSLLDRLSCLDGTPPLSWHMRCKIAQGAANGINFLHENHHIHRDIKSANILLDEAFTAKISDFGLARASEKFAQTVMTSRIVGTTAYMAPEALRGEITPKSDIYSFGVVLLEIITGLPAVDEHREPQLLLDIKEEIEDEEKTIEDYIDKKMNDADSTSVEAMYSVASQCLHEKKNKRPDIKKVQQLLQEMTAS

Compound	IC50 [µM]
CC(C)Oc1cc2c(OC3C4CC5C(C4)C53)ccnc2cc1C(N)=O (stereo not shown) [Example 17, 6-(propan-2-yloxy)-4-(tricyclo[2.2.1.0~2,6~]hept-3-yloxy)quinoline-7-carboxamide]	0.476

same assay, conditions: human IRAK4 kinase domain (aa 154-460), 0.6 mM ATP (KM); read-out: IRAK4 DELFIA Protocol B IC50

Compound	IC50 [µM]
CC(C)Oc1cc2c(O[C@@H]3C[C@@H]4CN[C@H]3C4)nccc2cc1C(N)=O [Example 108, 1-[(1S,4R,6R)-2-azabicyclo[2.2.1]hept-6-yloxy]-7-(propan-2-yloxy)isoquinoline-6-carboxamide]	1.87
CC(C)Oc1cc2c(OCC3CCCO3)ccnc2cc1C(N)=O (stereo not shown) [Example 11, 6-(propan-2-yloxy)-4-(tetrahydrofuran-2-ylmethoxy)quinoline-7-carboxamide]	3.23
CC(C)Oc1cc2c(OC[C@@H]3CCNC3)nccc2cc1C(N)=O [Example 117, 7-(propan-2-yloxy)-1-[(3R)-pyrrolidin-3-ylmethoxy]isoquinoline-6-carboxamide]	0.136
CC(C)Oc1cc2c(OC[C@]34CNC[C@H]3C4)nccc2cc1C(N)=O [Example 40, 1-[(1S,5S)-3-azabicyclo[3.1.0]hex-1-ylmethoxy]-7-(propan-2-yloxy)isoquinoline-6-carboxamide]	0.109
CC(C)Oc1cc2c(OCC3CCCC3)ccnc2cc1C(N)=O [Example 7, 4-(cyclopentylmethoxy)-6-(propan-2-yloxy)quinoline-7-carboxamide]	0.17
CC(C)Oc1cc2c(OCC3CCCS(=O)(=O)N3)nccc2cc1C(N)=O (stereo not shown) [Example 27, 1-[(1,1-dioxido-1,2-thiazinan-3-yl)methoxy]-7-(propan-2-yloxy)isoquinoline-6-carboxamide]	2.48
CC(C)Oc1cc2c(OC[C@H]3[C@@H]4CNC[C@@H]43)ccnc2cc1C(N)=O [Example 5, 4-[(1R,5S,6r)-3-azabicyclo[3.1.0]hex-6-ylmethoxy]-6-(propan-2-yloxy)quinoline-7-carboxamide]	0.323
CC(C)Oc1cc2c(OCC3(C)CCN(C(=O)CC#N)CC3)nccc2cc1C(N)=O [Example 86, 1-{[1-(cyanoacetyl)-4-methylpiperidin-4-yl]methoxy}-7-(propan-2-yloxy)isoquinoline-6-carboxamide]	0.216
CC(C)Oc1cc2c(OCC3CNCCO3)nccc2cc1C(N)=O (stereo not shown) [Example 39, 1-(morpholin-2-ylmethoxy)-7-(propan-2-yloxy)isoquinoline-6-carboxamide]	0.386
CC(C)Oc1cc2c(OCC3CCN(C(=O)CC#N)CC3)ccnc2cc1C(N)=O [Example 100, 4-{[1-(cyanoacetyl)piperidin-4-yl]methoxy}-6-(propan-2-yloxy)quinoline-7-carboxamide]	0.482
CC(C)Oc1cc2c(OC[C@@H]3CC(C)C(=O)N3)nccc2cc1C(N)=O (stereo partly drawn) [Example 107, 1-{[(2S)-4-methyl-5-oxopyrrolidin-2-yl]methoxy}-7-(propan-2-yloxy)isoquinoline-6-carboxamide]	0.016
CC(C)Oc1cc2c(OC[C@@H]3CCCN(C(=O)CC#N)C3)nccc2cc1C(N)=O [Example 67, 1-{[(3R)-1-(cyanoacetyl)piperidin-3-yl]methoxy}-7-(propan-2-yloxy)isoquinoline-6-carboxamide]	1.73
CC(C)Oc1cc2c(OCC3CCOCC3)nccc2cc1C(N)=O [Example 36, 7-(propan-2-yloxy)-1-(tetrahydro-2H-pyran-4-ylmethoxy)isoquinoline-6-carboxamide]	0.735
CC(C)Oc1cc2c(OCC3CCN(C(=O)CC#N)CC3)nccc2cc1C(N)=O [Example 62, 1-{[1-(cyanoacetyl)piperidin-4-yl]methoxy}-7-(propan-2-yloxy)isoquinoline-6-carboxamide]	1.29
CC(C)Oc1cc2c(OC[C@H]3CNCCO3)nccc2cc1C(N)=O [Example 47, 1-[(2R)-morpholin-2-ylmethoxy]-7-(propan-2-yloxy)isoquinoline-6-carboxamide]	2.79
CC(C)Oc1cc2c(OCC3CCCN(C)C3)nccc2cc1C(N)=O (stereo not shown) [Example 45, 1-[(1-methylpiperidin-3-yl)methoxy]-7-(propan-2-yloxy)isoquinoline-6-carboxamide]	1.92
CC(C)Oc1cc2c(OC[C@@]3(C)CNC[C@@H]3C)ccnc2cc1C(N)=O [Example 55, 4-{[(3R,4R)-3,4-dimethylpyrrolidin-3-yl]methoxy}-6-(propan-2-yloxy)quinoline-7-carboxamide]	0.264
CC(C)Oc1cc2c(OCC3(C)CCN(C(=O)CC#N)CC3)ccnc2cc1C(N)=O [Example 91, 4-{[1-(cyanoacetyl)-4-methylpiperidin-4-yl]methoxy}-6-(propan-2-yloxy)quinoline-7-carboxamide]	0.489
CC(C)Oc1cc2c(OC[C@@H]3CCCN(C(=O)CC#N)C3)ccnc2cc1C(N)=O [Example 97, 4-{[(3R)-1-(cyanoacetyl)piperidin-3-yl]methoxy}-6-(propan-2-yloxy)quinoline-7-carboxamide]	2.74
CC(C)Oc1cc2c(OC[C@H]3CCN(C(=O)CC#N)C3)ccnc2cc1C(N)=O [Example 22, 4-{[(3S)-1-(cyanoacetyl)pyrrolidin-3-yl]methoxy}-6-(propan-2-yloxy)quinoline-7-carboxamide]	0.045

Compound	IC50 [µM]
CC(C)Oc1cc2c(OCC3CCNC3)nccc2cc1C(N)=O (stereo not shown) [Example 191, 7-(propan-2-yloxy)-1-(pyrrolidin-3-ylmethoxy)isoquinoline-6-carboxamide]	0.252
CC(C)Oc1cc2c(O[C@@H]3C[C@H]4C[C@@H]3CN(C(=O)CC#N)C4)ccnc2cc1C(N)=O [Example 89, 4-{[(1R,5R,6R)-3-(cyanoacetyl)-3-azabicyclo[3.2.1]oct-6-yl]oxy}-6-(propan-2-yloxy)quinoline-7-carboxamide]	0.395
CC(C)Oc1cc2c(OCC3CNC3)ccnc2cc1C(N)=O [Example 1, 4-(azetidin-3-ylmethoxy)-6-(propan-2-yloxy)quinoline-7-carboxamide]	2.91
CC(C)Oc1cc2c(OC[C@H]3CCCN3C(=O)CC#N)nccc2cc1C(N)=O [Example 61, 1-{[(2R)-1-(cyanoacetyl)pyrrolidin-2-yl]methoxy}-7-(propan-2-yloxy)isoquinoline-6-carboxamide]	0.249
CC(C)Oc1cc2c(OCC3(F)CCN(C(=O)CC#N)CC3)ccnc2cc1C(N)=O [Example 95, 4-{[1-(cyanoacetyl)-4-fluoropiperidin-4-yl]methoxy}-6-(propan-2-yloxy)quinoline-7-carboxamide]	3.17
CC(C)Oc1cc2c(OC[C@@]34CNC[C@@H]3C4)nccc2cc1C(N)=O [Example 140, 1-[(1R,5R)-3-azabicyclo[3.1.0]hex-1-ylmethoxy]-7-(propan-2-yloxy)isoquinoline-6-carboxamide]	0.084
CC(C)Oc1cc2c(OCC3CCCCN3)nccc2cc1C(N)=O (stereo not shown) [Example 43, 1-(piperidin-2-ylmethoxy)-7-(propan-2-yloxy)isoquinoline-6-carboxamide]	3.32
CC(C)Oc1cc2c(OCC3(C)CCN(C(=O)CC#N)C3)nccc2cc1C(N)=O (stereo not shown) [Example 82, 1-{[1-(cyanoacetyl)-3-methylpyrrolidin-3-yl]methoxy}-7-(propan-2-yloxy)isoquinoline-6-carboxamide]	0.969
CC(C)Oc1cc2c(OC[C@H]3CCCO3)nccc2cc1C(N)=O [Example 30, 7-(propan-2-yloxy)-1-[(2R)-tetrahydrofuran-2-ylmethoxy]isoquinoline-6-carboxamide]	2.44
CC(C)Oc1cc2c(O[C@H]3C[C@@H]4C[C@H]3CN4)nccc2cc1C(N)=O [Example 101, 1-[(1S,4S,5S)-2-azabicyclo[2.2.1]hept-5-yloxy]-7-(propan-2-yloxy)isoquinoline-6-carboxamide]	1.18
CC(C)Oc1cc2c(OC[C@]34CNC(=O)[C@H]3C4)nccc2cc1C(N)=O [Example 175, 1-{[(1S,5S)-4-oxo-3-azabicyclo[3.1.0]hex-1-yl]methoxy}-7-(propan-2-yloxy)isoquinoline-6-carboxamide]	0.101
CO[C@H]1CN(C(=O)CC#N)C[C@@H]1COc1nccc2cc(C(N)=O)c(OC(C)C)cc12 [Example 84, 1-{[(3R,4R)-1-(cyanoacetyl)-4-methoxypyrrolidin-3-yl]methoxy}-7-(propan-2-yloxy)isoquinoline-6-carboxamide]	0.534
CC(C)Oc1cc2c(OC[C@H]3CCNC3)nccc2cc1C(N)=O [Example 49, 7-(propan-2-yloxy)-1-[(3S)-pyrrolidin-3-ylmethoxy]isoquinoline-6-carboxamide]	0.451
CC(C)Oc1cc2c(OCC3(C)COC3)ccnc2cc1C(N)=O [Example 12, 4-[(3-methyloxetan-3-yl)methoxy]-6-(propan-2-yloxy)quinoline-7-carboxamide]	1.04
CC(C)Oc1cc2c(OC[C@@H]3CCN3)nccc2cc1C(N)=O [Example 119, 1-[(2S)-azetidin-2-ylmethoxy]-7-(propan-2-yloxy)isoquinoline-6-carboxamide]	1.43
CC(C)Oc1cc2c(OC[C@@H]3[C@H]4CN(C(=O)CC#N)C[C@@H]34)ccnc2cc1C(N)=O [Example 87, 4-{[(1R,5S,6r)-3-(cyanoacetyl)-3-azabicyclo[3.1.0]hex-6-yl]methoxy}-6-(propan-2-yloxy)quinoline-7-carboxamide]	2.62
CC(C)Oc1cc2c(OC[C@H]3CCN(C(=O)CC#N)C3)nccc2cc1C(N)=O [Example 66, 1-{[(3S)-1-(cyanoacetyl)pyrrolidin-3-yl]methoxy}-7-(propan-2-yloxy)isoquinoline-6-carboxamide]	0.255
CC(C)Oc1cc2c(OC[C@@H]3COCCN3)nccc2cc1C(N)=O [Example 160, 1-[(3S)-morpholin-3-ylmethoxy]-7-(propan-2-yloxy)isoquinoline-6-carboxamide]	0.151
COc1cc2c(OC[C@@H]3NC(=O)CC3(C)C)nccc2cc1C(N)=O [Example 222, 1-{[(2R)-3,3-dimethyl-5-oxopyrrolidin-2-yl]methoxy}-7-methoxyisoquinoline-6-carboxamide]	1.87
